Reference: patent US20080287299A1, “Use of Imidazole and/or Triazole Derivatives for Combating Plant Pests; as Well as Method for Controlling Diseases/Insects/Mites/Nematodes and Weeds, Particularly Foliar and/or Soil Diseases” (priority 2005, published 2008)

How the values were obtained:
[1] = tested on: Phakopsora pachyrhizi; test: Greenhouse soybean rust test, plants at V6 stage, evaluated every 5 days; format: in vivo; conditions: for SEVERITY OF RUST (% IFA) 5 DAT / SEVERITY OF RUST (% IFA) 10 DAT / SEVERITY OF RUST (% IFA) 15 DAT: soybean
Excerpt: Recent tests carried out in greenhouses the laboratory of FMC Quimica do Brasil Ltda. in Uberaba, MG, Brazil, show the highly fungicidal effect of said specific imidazole and/or triazole derivatives in combating diseases of plants, particularly against the attack by the fungus Phakopsora pachyrhizi on soybeans, as described hereinafter. […]
(§1) Equipment: a manual sprayer commonly used in agriculture with 2-liter capacity.
Dosages: 50 to 500 grams per hectare of the active compound Fluconazole per liter diluted in water.
Evaluations of the Effectiveness of the Product: The evaluations were made every 5 days after application of the product, in a total of 4 evaluations. As an evaluation parameter one utilized the severity of the disease (percentage of foliar area attacked by rust) according to the diagrammatic scale of the EMBRAPA (FIG. 1). […]
Dosages: 50 to 500 grams per hectare of the active compound Itraconazole per liter diluted in water.

[2] = tested on: Phakopsora pachyrhizi; test: Greenhouse soybean rust test, plants at V5 stage, evaluated every 7 days; format: in vivo; conditions: for SEVERITY OF RUST (% IFA) 7 DAT / SEVERITY OF RUST (% IFA) 14 DAT / SEVERITY OF RUST (% IFA) 21 DAT / SEVERITY OF RUST (% IFA) 28 DAT: soybean
Excerpt: Recent tests carried out in greenhouses the laboratory of FMC Quimica do Brasil Ltda. in Uberaba, MG, Brazil, show the highly fungicidal effect of said specific imidazole and/or triazole derivatives in combating diseases of plants, particularly against the attack by the fungus Phakopsora pachyrhizi on soybeans, as described hereinafter.
Experimental Outline Experimental Outline: entirely made with five repetitions, two plants per repetition, totaling 10 plants.
a) Preventive Mode: 30 days after plantation of the soybeans in plastic 2-liter pots and with corresponding volumes of soil, the soybean plants were at the V5 stage with six expanded folioles. At this moment, the compounds were sprayed and then, 48 hours afterwards, inoculation of the rust was effected. To effect the inoculation, one prepared a suspension of Phakopsora uredospores at the concentration of 2×10^4 spores/milliliters.
b) Healing mode: 30 days after plantation of the soybeans in 2-liter plastic pots and with a corresponding volume of soil, the soybean plants were at the V5 stage with six expanded folioles. At this moment, one effected the inoculation of the rust and then, 48 hours afterwards, the compounds were sprayed. To effect the inoculation, one prepared a suspension of Phakopsora uredospores at the concentration of 2×10^4 spores/milliliters.
as §1
Dosages: 50 to 300 grams per hectare of the active compound Itraconazole per liter diluted in water.
Evaluations of the Effectiveness of the Product: The evaluations were made every 7 days after application of the product, in a total of 4 evaluations. As an evaluation parameter one utilized the severity of the disease (percentage of foliar area attacked by rust) according to FIG. 1).
Dosages: 50 to 300 grams per hectare of the active compound Voriconazole per liter diluted in water.

[3] = from 50 grams of active ingredient per hectare

## CCC(C)n1ncn(-c2ccc(N3CCN(c4ccc(OC[C@H]5CO[C@](Cn6cncn6)(c6ccc(Cl)cc6Cl)O5)cc4)CC3)cc2)c1=O (mixture of isomers) [Itraconazole, 4-[4-[4-[4-[[2-(2,4-dichlorophenyl)-2-(1H-1,2,4-triazol-1-ylmethyl)-1,3-dioxolan-4-yl]methoxy]phenyl]-1-pipera-zinyl]phenyl]-2,4-dihydro-2-(1-methylpropyl) 3H-1,2,4-triazol-3-one]
[1]; Table 3: 50 g ac/ha
  SEVERITY OF RUST (% IFA) 5 DAT: 6 % IFA
  SEVERITY OF RUST (% IFA) 10 DAT: 12 % IFA
  SEVERITY OF RUST (% IFA) 15 DAT: 11 % IFA
[1]; Table 3: 100 g ac/ha
  SEVERITY OF RUST (% IFA) 5 DAT: 5 % IFA
  SEVERITY OF RUST (% IFA) 10 DAT: 13 % IFA
  SEVERITY OF RUST (% IFA) 15 DAT: 10 % IFA
[1]; Table 3: 150 g ac/ha
  SEVERITY OF RUST (% IFA) 5 DAT: 5 % IFA
  SEVERITY OF RUST (% IFA) 10 DAT: 13 % IFA
  SEVERITY OF RUST (% IFA) 15 DAT: 10 % IFA
[1]; Table 3: 250 g ac/ha
  SEVERITY OF RUST (% IFA) 5 DAT: 3 % IFA
  SEVERITY OF RUST (% IFA) 10 DAT: 14 % IFA
  SEVERITY OF RUST (% IFA) 15 DAT: 10 % IFA
[1]; Table 3: 500 g ac/ha
  SEVERITY OF RUST (% IFA) 5 DAT: 0 % IFA
  SEVERITY OF RUST (% IFA) 10 DAT: 10 % IFA
  SEVERITY OF RUST (% IFA) 15 DAT: 0 % IFA
[1]; [3]
  effective in controlling soybean rust: effective in controlling soybean rust

## C[C@@H](c1ncncc1F)[C@](O)(Cn1cncn1)c1ccc(F)cc1F (relative stereo) [Voriconazole, alpha-(2,4-difluorophenyll)-5-fluor-beta-methyl-alpha-(1H-1,2,4-triazol-1-yllmethyl)-(R—(R*,S*))-4-pirimidinetanole]
[2]; Table 5: 50 g ac/ha
  SEVERITY OF RUST (% IFA) 7 DAT: 8 % IFA
  SEVERITY OF RUST (% IFA) 14 DAT: 10 % IFA
  SEVERITY OF RUST (% IFA) 21 DAT: 10 % IFA
  SEVERITY OF RUST (% IFA) 28 DAT: 13 % IFA
[2]; Table 5: 100 g ac/ha
  SEVERITY OF RUST (% IFA) 7 DAT: 8 % IFA
  SEVERITY OF RUST (% IFA) 14 DAT: 8 % IFA
  SEVERITY OF RUST (% IFA) 21 DAT: 11 % IFA
  SEVERITY OF RUST (% IFA) 28 DAT: 18 % IFA
[2]; Table 5: 150 g ac/ha
  SEVERITY OF RUST (% IFA) 7 DAT: 8 % IFA
  SEVERITY OF RUST (% IFA) 14 DAT: 8 % IFA
  SEVERITY OF RUST (% IFA) 21 DAT: 10 % IFA
  SEVERITY OF RUST (% IFA) 28 DAT: 18 % IFA
[2]; Table 5: 200 g ac/ha
  SEVERITY OF RUST (% IFA) 7 DAT: 4 % IFA
  SEVERITY OF RUST (% IFA) 14 DAT: 7 % IFA
  SEVERITY OF RUST (% IFA) 21 DAT: 11 % IFA
  SEVERITY OF RUST (% IFA) 28 DAT: 11 % IFA
[2]; Table 5: 300 g ac/ha
  SEVERITY OF RUST (% IFA) 7 DAT: 2 % IFA
  SEVERITY OF RUST (% IFA) 14 DAT: 0 % IFA
  SEVERITY OF RUST (% IFA) 21 DAT: 1 % IFA
  SEVERITY OF RUST (% IFA) 28 DAT: 5 % IFA
[2]; [3]
  effective in controlling soybean rust: effective in controlling soybean rust
